The subject of one data set is Setaria viridis. Description: greenhouse post-emergence herbicidal test. Format: in vivo. The settings on record: for post-emergence activity against green foxtail: application rate 1.0 kg/ha. How it is done: (§1) The seeds of the test plants were sown separately for each species. For the post-emergence treatment, the test plants were grown to a plant height of from 3 to 15 cm, depending on the plant habit, and only then treated with the active ingredients which had been suspended or emulsified in water. To this end, the test plants were either sown directly and grown in the same containers, or they were first grown separately as seedlings and transplanted into the test containers a few days prior to treatment. […] (active substance). Depending on the species, the plants were kept at from 10 to 25° C. and 20 to 35° C., respectively. The test period extended over 2 to 4 weeks. During this time, the plants were tended, and their response to the individual treatments was evaluated. Evaluation was carried out using a scale of from 0 to 100. 100 means no emergence of the plants, or complete destruction of at least the aerial parts, and 0 means no damage or normal course of growth. The plants used in the greenhouse experiments belonged to the following species: [table]

In a further data set the test system is Amaranthus retroflexus. Kind of data set: greenhouse post-emergence herbicidal test. To be noted: for post-emergence activity against pig weed: application rate 1.0 kg/ha. Format: in vivo. How it is done:
as §1

Another data set concerns Chenopodium album. Kind of data set: greenhouse post-emergence herbicidal test. Format: in vivo. The settings on record: for post-emergence activity against lambsquarters: application rate 1.0 kg/ha. How it is done:
as §1

A further data set relates to Galium aparine. Description: greenhouse post-emergence herbicidal test. Type of data set: in vivo. To be noted: application rate 1.0 kg/ha. As to the method:
as §1

Another data set deals with Echinocloa crus-galli. Description: greenhouse post-emergence herbicidal test. To be noted: application rate 1.0 kg/ha. Type of data set: in vivo. As to the method:
as §1

A further data set relates to Polygonum convolvulus. Description: greenhouse post-emergence herbicidal test. Type of data set: in vivo. To be noted: application rate 1.0 kg/ha. How it is done:
as §1

SMILES strings stand for the structures.

Consider `CNC(=O)C(NC(=O)c1cn(C)nc1C(F)(F)F)C(C)c1ccccc1C` (mixture of isomers) [Compound 4.6], for which, in the data set on Setaria viridis, the “post-emergence activity against green foxtail” value is on record as “very good”. Further, the “post-emergence activity against pig weed” value with Amaranthus retroflexus is reported as “very good”. The “post-emergence activity against lambsquarters” value with Chenopodium album is recorded as “very good”.

By melting point is commonly meant the temperature of the solid-liquid transition. `CNC(=O)C(NC(=O)c1cn(C)nc1C(F)(F)F)C(O)c1ccccc1` (racemic) [Compound 4.9, N-(2-Hydroxy-1-methylcarbamoyl-2-phenylethyl)-1-methyl-3-trifluoromethyl-1H-pyrazole-4-carboxamide] yielded a melting point of 216 °C.

Turning to `CCC(CC)C(=O)OC(c1ccccc1)C(NC(=O)c1cn(C)nc1C(F)(F)F)C(=O)NC` (racemic) [Compound 4.14], in the data set with Setaria viridis, the “post-emergence activity against green foxtail” value is “very good”. Moreover, the “post-emergence activity against pig weed” value in the data set with Amaranthus retroflexus is listed as “very good”. In addition, the “post-emergence activity against lambsquarters” value in the data set on Chenopodium album is “very good”.

`CNC(=O)C(NC(=O)c1cn(C)nc1C(F)(F)F)C(OC(=O)C(C)(C)C)c1ccccc1` (racemic) [Compound 4.15, 2-Methylcarbamoyl-2-[(1-methyl-3-trifluoromethyl-1H-pyrazole-4-carbonyl)amino]-1-phenylethyl 2,2-dimethylpropionate]: the melting point was 158 °C.

Regarding `CNC(=O)C(NC(=O)c1cn(C)nc1C(F)(F)F)C(OS(C)(=O)=O)c1ccccc1` (racemic) [Compound 4.22], the “post-emergence action on green foxtail” value in the data set with Setaria viridis (application rate 0.5 kg/ha) is “very good”. Moreover, the “post-emergence action on pig weed” value in the data set with Amaranthus retroflexus (application rate 0.5 kg/ha) is “very good”. Further, in the data set on Chenopodium album (application rate 0.5 kg/ha), the “post-emergence action on lambsquarters” value was “very good”.

For `CNC(=O)C(NC(=O)c1ccsc1C(F)(F)F)C(OC(=O)COC)c1ccccc1` (racemic) [Compound 5.6], the “post-emergence activity against green foxtail” value in the data set with Setaria viridis was “very good”. Moreover, in the data set with Amaranthus retroflexus, the “post-emergence activity against pig weed” value is on record as “very good”. Also, the “post-emergence activity against lambsquarters” value with Chenopodium album is “very good”.

Consider `CNC(=O)C(NC(=O)c1cscc1C(F)(F)F)C(OC(=O)N(C)C)c1ccccc1` (racemic) [Compound 5.8], for which the “post-emergence activity against cleavers harrif” value in the data set on Galium aparine is on record as “very good”. Besides, the “post-emergence activity against green foxtail” value in the data set with Setaria viridis is reported as “very good”. Further, in the data set with Chenopodium album, the “post-emergence activity against lambsquarters” value was “very good”. Further, the “post-emergence activity against cockspur” value in the data set on Echinocloa crus-galli was “very good”. Moreover, the “post-emergence activity against black bindweed” value in the data set on Polygonum convolvulus is “very good”.

Regarding `CNC(=O)C(NC(=O)c1cc(C)oc1C(F)(F)F)C(O)c1ccccc1` (racemic) [Compound 5.14], the “post-emergence activity against cleavers harrif” value in the data set with Galium aparine was “very good”. For the same molecule, the “post-emergence activity against green foxtail” value in the data set on Setaria viridis is recorded as “very good”. Besides, the “post-emergence activity against lambsquarters” value in the data set with Chenopodium album is on record as “very good”. Also, in the data set on Echinocloa crus-galli, the “post-emergence activity against cockspur” value was “very good”.

`CNC(=O)C(NC(=O)c1cc(C)oc1C(F)(F)F)C(OC(=O)N(C)C)c1ccccc1` (racemic) [Compound 5.16]: the “post-emergence activity against green foxtail” value with Setaria viridis is listed as “very good”. In addition, the “post-emergence activity against lambsquarters” value in the data set with Chenopodium album is “very good”. In the data set with Echinocloa crus-galli, the “post-emergence activity against cockspur” value was “very good”. Besides, in the data set with Polygonum convolvulus, the “post-emergence activity against black bindweed” value is reported as “very good”.

Take `CNC(=O)C(NC(=O)c1ccncc1C(F)(F)F)C(O)c1ccccc1` (racemic) [Compound 5.23]: the “post-emergence activity against cleavers harrif” value in the data set with Galium aparine was “very good”. In the data set with Setaria viridis, the “post-emergence activity against green foxtail” value is “very good”. Moreover, in the data set with Amaranthus retroflexus, the “post-emergence activity against pig weed” value is “very good”. Besides, the “post-emergence activity against lambsquarters” value with Chenopodium album is “very good”.

Source of the values: patent US20070060480A1, “Heteroaroyl-substituted phenylalanineamides” (priority 2003, published 2007).
